Experimental data published in the NIST ThermoML archive (doi:10.1021/je060271a).
Values joined by “and” are separate entries in the source; they are usually repeats but may differ in a detail not shown here. Equal values may be shown once.

Settings: 303.16 K, Liquid, Vibrating tube method

CCCCCC(=O)OCC(COC(=O)CCCCC)(COC(=O)CCCCC)COC(=O)CCCCC [pentaerythritol tetrahexanoate]
Settings	mass density
10818 kPa	995.1 kg/m3
10847 kPa	995.1 kg/m3
10876 kPa	995.3 kg/m3
10911 kPa	995.2 kg/m3
10941 kPa	995.3 kg/m3
10972 kPa	995.3 kg/m3
11002 kPa	995.2 kg/m3
11031 kPa	995.3 kg/m3
11066 kPa	995.3 kg/m3
11454 kPa	995.6 kg/m3
11487 kPa	995.6 kg/m3
11513 kPa	995.6 kg/m3
11540 kPa	995.6 kg/m3
11571 kPa	995.7 kg/m3
11596 kPa	995.6 kg/m3
11626 kPa	995.6 kg/m3
11790 kPa	995.8 kg/m3
11810 kPa	995.6 kg/m3
11820 kPa	995.9 kg/m3
11829 kPa	995.8 kg/m3
11924 kPa	995.8 kg/m3
11933 kPa	995.7 kg/m3
11944 kPa	995.8 kg/m3
11958 kPa	995.9 kg/m3
11979 kPa	995.9 kg/m3
11996 kPa	996 kg/m3
12017 kPa	996 kg/m3
12842 kPa	996.5 kg/m3
12884 kPa	996.5 kg/m3
13029 kPa	996.6 kg/m3
13048 kPa	996.5 kg/m3
13072 kPa	996.5 kg/m3
13092 kPa	996.6 kg/m3
13112 kPa	996.6 kg/m3
13136 kPa	996.7 kg/m3
13156 kPa	996.5 kg/m3
13176 kPa	996.6 kg/m3
13200 kPa	996.7 kg/m3
13220 kPa	996.6 kg/m3
13241 kPa	996.7 kg/m3
13266 kPa	996.7 kg/m3
13286 kPa	996.7 kg/m3
14924 kPa	997.7 kg/m3
14953 kPa	997.6 kg/m3
14977 kPa	997.7 kg/m3
15002 kPa	997.7 kg/m3
15135 kPa	997.8 kg/m3
15160 kPa	997.8 kg/m3
15189 kPa	997.8 kg/m3
15214 kPa	997.8 kg/m3
15239 kPa	997.8 kg/m3
15264 kPa	997.9 kg/m3
15318 kPa	997.9 kg/m3
15342 kPa	997.9 kg/m3
15371 kPa	997.9 kg/m3
15394 kPa	997.9 kg/m3
15422 kPa	997.9 kg/m3
15445 kPa	998 kg/m3
15468 kPa	998 kg/m3
15492 kPa	998 kg/m3
15520 kPa	998 kg/m3
15543 kPa	998 kg/m3
15567 kPa	997.9 kg/m3
15595 kPa	998 kg/m3
15618 kPa	998 kg/m3
15865 kPa	998.4 kg/m3
16816 kPa	998.8 kg/m3
17240 kPa	999 kg/m3
17241 kPa	999 kg/m3
17243 kPa	999 kg/m3
17245 kPa	999 kg/m3
17258 kPa	999.1 kg/m3
17279 kPa	999 kg/m3
17302 kPa	999 kg/m3
17313 kPa	999 kg/m3
17343 kPa	999.1 kg/m3
17353 kPa	999.1 kg/m3 and 999 kg/m3
17354 kPa	999.1 kg/m3 and 999.2 kg/m3
17601 kPa	999.3 kg/m3
17625 kPa	999.2 kg/m3
17654 kPa	999.2 kg/m3
17675 kPa	999.2 kg/m3
17704 kPa	999.3 kg/m3
17727 kPa	999.3 kg/m3
17750 kPa	999.5 kg/m3
17777 kPa	999.3 kg/m3
17799 kPa	999.3 kg/m3
17825 kPa	999.3 kg/m3
17847 kPa	999.3 kg/m3
17869 kPa	999.3 kg/m3
17891 kPa	999.4 kg/m3
18682 kPa	999.8 kg/m3
18706 kPa	999.9 kg/m3
18735 kPa	999.9 kg/m3
18759 kPa	999.9 kg/m3
18784 kPa	999.9 kg/m3
18808 kPa	1000 kg/m3
18838 kPa	999.9 kg/m3
18862 kPa	1000 kg/m3
18892 kPa	1000 kg/m3
23429 kPa	1002.6 kg/m3
23459 kPa	1002.6 kg/m3
23495 kPa	1002.6 kg/m3
23525 kPa	1002.6 kg/m3
23561 kPa	1002.7 kg/m3
23592 kPa	1002.6 kg/m3
23622 kPa	1002.8 kg/m3
23653 kPa	1002.7 kg/m3
23690 kPa	1002.8 kg/m3
23720 kPa	1002.8 kg/m3
23757 kPa	1002.7 kg/m3
23788 kPa	1002.8 kg/m3
23820 kPa	1002.9 kg/m3
23856 kPa	1002.8 kg/m3
23888 kPa	1002.8 kg/m3
23920 kPa	1002.9 kg/m3
23958 kPa	1002.9 kg/m3
23990 kPa	1002.8 kg/m3
24022 kPa	1002.9 kg/m3
24054 kPa	1002.8 kg/m3
24093 kPa	1003 kg/m3
24125 kPa	1003 kg/m3
24164 kPa	1003 kg/m3
24196 kPa	1003.1 kg/m3
24226 kPa	1003 kg/m3
24255 kPa	1003.1 kg/m3
24419 kPa	1003.2 kg/m3
24447 kPa	1003.2 kg/m3
24481 kPa	1003.2 kg/m3
24509 kPa	1003.2 kg/m3
24537 kPa	1003.1 kg/m3
24571 kPa	1003.3 kg/m3
24599 kPa	1003.3 kg/m3
24628 kPa	1003.3 kg/m3
24656 kPa	1003.4 kg/m3
24691 kPa	1003.3 kg/m3
24720 kPa	1003.3 kg/m3
24749 kPa	1003.3 kg/m3
24778 kPa	1003.3 kg/m3
24812 kPa	1003.4 kg/m3
24935 kPa	1003.4 kg/m3
25029 kPa	1003.4 kg/m3
25058 kPa	1003.4 kg/m3
25094 kPa	1003.6 kg/m3
